Results published in ChEMBL document CHEMBL5126646, “Synthesis and Biological Evaluation of Aurachin D Analogues as Inhibitors of Mycobacterium tuberculosis Cytochrome bd Oxidase” (ACS Med Chem Lett, 2022).
Converted amounts (≈) assume the structure as drawn.

Experiments:
[1] = test system: Mycolicibacterium smegmatis; assay: Growth inhibition of Mycobacterium smegmatis mc2155 harboring deltaqcr mutant incubated for 48 hrs under shaking condition; type: functional
[2] = test system: Mycobacterium tuberculosis; assay: Antitubercular activity against Mycobacterium tuberculosis mc26230 incubated for 7 days; type: functional; settings: mc26230, 168 h, time 7 day
[3] = Growth inhibition of nonpathogenic Mycobacterium smegmatis mc2155 incubated for 48 hrs under shaking condition; settings: mycolicibacterium smegmatis
[4] = (§1) Inhibition of Mycobacterium tuberculosis cytochrome bd oxidase over expressed in inverted membrane vesicles of Mycobacterium smegmatis deltacydAB assessed as reduction in malate-induced increase in oxygen consumption rate measured after 60 secs in presence of cytochrome bcc-aa3 complex inhibitor TB47 by fluorespirometry; type: cell membranes, Membrane vesicle
[5] = as §1, with “smegmatis mc2155” for “smegmatis”, “at 120” for “after 60”; type: cell membranes, Membrane vesicle

SMILES | MIC [1] [µM] | MIC [2] [µM] | MIC [3] [µM] | IC50 [4] [µM] | IC50 [5] [µM]
Cc1[nH]c2ccccc2c(=O)c1Cc1ccccc1 | > 512 | 32 (≈ 7.98 µg/mL) | > 512 | 4.8 | 
CC(C)=CCC/C(C)=C/Cc1c(C)[nH]c2ccc(N)cc2c1=O | > 512 | > 512 | > 512 | 33 | 
COc1cccc2c(=O)c(C/C=C(\C)CC/C=C(\C)CCC=C(C)C)c(C)[nH]c12 | > 512 | 64 (≈ 25.2 µg/mL) | > 512 | 1.3 | 
CC(C)=CCC/C(C)=C/CC/C(C)=C/Cc1c(C)[nH]c2ccc([N+](=O)[O-])cc2c1=O | > 512 | > 512 | > 512 | 1.8 | 
CC(C)=CCC/C(C)=C/CC/C(C)=C/Cc1c(C)[nH]c2ccc(N=[N+]=[N-])cc2c1=O | > 512 | 512 (≈ 207 µg/mL) | > 512 | 4.7 | 
CC(C)=CCC/C(C)=C/CC/C(C)=C/Cc1c(C)[nH]c2cccc(O)c2c1=O | > 512 | 256 (≈ 97.2 µg/mL) | > 512 | 0.61 | 
CC(C)=CCC/C(C)=C/CC/C(C)=C/Cc1c(C)[nH]c2cc(C(F)(F)F)ccc2c1=O | > 512 | > 512 | > 512 | > 1000 | 
CC(C)=CCC/C(C)=C/CC/C(C)=C/Cc1c(C)[nH]c2cc(N)ccc2c1=O | > 512 | > 512 | > 512 | 1.8 | 
COc1ccc2c(=O)c(C/C=C(\C)CC/C=C(\C)CCC=C(C)C)c(C)[nH]c2c1 | > 512 | > 512 | > 512 | 0.13 | 
CC(C)=CCC/C(C)=C/CC/C(C)=C/Cc1c(C)[nH]c2cc(C)ccc2c1=O | > 512 | > 512 | > 512 | 31 | 
CC(C)=CCC/C(C)=C/CC/C(C)=C/Cc1c(C)[nH]c2ccc(F)cc2c1=O | > 512 | 8 (≈ 3.05 µg/mL) | > 512 | 0.25 | 
COc1cccc2[nH]c(C)c(C/C=C(\C)CC/C=C(\C)CCC=C(C)C)c(=O)c12 | > 512 | 32 (≈ 12.6 µg/mL) | > 512 | 0.36 | 
CC(C)=CCC[C@@H](C)CCc1c(C)[nH]c2ccccc2c1=O | > 512 | 4 (≈ 1.19 µg/mL) | > 512 | 0.35 | 
CC(C)=CCC/C(C)=C/CC/C(C)=C/Cc1c(C)[nH]c2ccc(O)cc2c1=O | > 512 | 256 (≈ 97.2 µg/mL) | > 512 | 0.59 | 
CC(C)=CCC[C@@H](C)CCc1c(C)[nH]c2cc(N)ccc2c1=O | > 512 | 512 (≈ 160 µg/mL) | > 512 | 52 | 
CC(C)=CCC/C(C)=C/CC/C(C)=C/Cc1c(C)[nH]c2ccc(N)cc2c1=O | > 512 | > 512 | > 512 | 5 | 
CC(C)=CCC/C(C)=C/CC/C(C)=C/Cc1c(C)[nH]c2ccc(Cl)cc2c1=O | > 512 | > 512 | > 512 | 9 | 
CC(C)=CCC/C(C)=C/CC/C(C)=C/Cc1c(C)[nH]c2cc(F)ccc2c1=O | > 512 | 256 (≈ 97.7 µg/mL) | > 512 | 0.37 | 
CC(C)=CCC/C(C)=C/CC/C(C)=C/Cc1c(C)[nH]c2cc(Cl)cc(Cl)c2c1=O | > 512 | > 512 | > 512 | 4.6 | 
COc1ccc2[nH]c(C)c(C/C=C(\C)CC/C=C(\C)CCC=C(C)C)c(=O)c2c1 | > 512 | 256 (≈ 101 µg/mL) | > 512 | 0.67 | 
CC(C)=CCC/C(C)=C/CC/C(C)=C/Cc1c(C)[nH]c2cc(Cl)ccc2c1=O | > 512 | > 512 | > 512 | > 1000 | 
CC(C)=CCC/C(C)=C/Cc1c(C)[nH]c2ccccc2c1=O | > 512 | > 512 | > 512 | 1.1 | 
CC(C)=CCc1c(C)[nH]c2ccccc2c1=O | > 512 | 32 (≈ 7.27 µg/mL) | > 512 | 5.8 | 
CC(C)=CCC/C(C)=C/CC/C(C)=C/Cc1c(C)[nH]c2cccc(F)c2c1=O | > 512 | 256 (≈ 97.7 µg/mL) | > 512 | 7.5 | 
CC(C)=CCC/C(C)=C/CC/C(C)=C/Cc1c(C)[nH]c2ccccc2c1=O [AURACHIN D] | > 512 | 8 (≈ 2.91 µg/mL) | > 512 |  | 0.15
